Assays:
[1] = tested on: Human immunodeficiency virus 1; experiment: Antiviral activity against drug-resistant HIV1 with reverse transcriptase Y181C mutant infected in human MT4 cells assessed as virus-induced cell death by MTT method; format: functional; conditions: Human immunodeficiency virus 1, MT4; read-out: ED50 (the source's name)
[2] = tested on: Human immunodeficiency virus 1; experiment: Antiviral activity against wild type HIV1 NL4-3 infected in human MT4 cells assessed as virus-induced cell death by MTT method; format: functional; conditions: Human immunodeficiency virus 1, NL4-3, MT4; read-out: ED50 (the source's name)
[3] = tested on: Human immunodeficiency virus 1; experiment: Antiviral activity against drug-resistant HIV1 with reverse transcriptase K103N mutant infected in human MT4 cells assessed as virus-induced cell death by MTT method; format: functional; conditions: Human immunodeficiency virus 1, MT4; read-out: ED50 (the source's name)
[4] = target: Human immunodeficiency virus type 1 reverse transcriptase (Human immunodeficiency virus 1) (UniProt Q72547); experiment: Inhibition of wild type HIV1 reverse transcriptase
[5] = Ratio of ED50 for drug resistant HIV1 with reverse transcriptase K103N mutant to wild type HIV1 NL4-3; format: functional
[6] = Ratio of ED50 for drug resistant HIV1 with reverse transcriptase Y181C mutant to wild type HIV1 NL4-3; format: functional

SMILES | EC50 [1] [µM] | EC50 [2] [µM] | EC50 [3] [µM] | ID50 [4] [µM] | Ratio EC50 [5] | Ratio EC50 [6]
CSc1nc(N)c(C)c(C(=O)Cc2ccccc2)n1 | > 25 | > 25 | > 25 | > 20 | – | –
Cc1ccnc2c1NC(=O)c1cccnc1N2C1CC1 [NEVIRAPINE] | > 2 | 0.04 | 0.68 | – | 17 | –
CSc1nc(N)c(C)c(C(=O)CCc2ccccc2)n1 | > 25 | > 25 | > 25 | > 20 | – | –
COc1ccc(CSc2nc(Cc3c(Cl)cccc3Cl)c(C)c(=O)[nH]2)cc1 | – | 0.007 | 4.7 | – | 671 | –
CSc1nc(N)c(C)c(C(O)c2ccccc2)n1 (centres undefined) | > 25 | > 25 | > 25 | 7.7 | – | –
CSc1nc(N)c(C)c(C(=O)c2ccccc2)n1 | 1.71 | 0.06 | 1.67 | 1.9 | 28 | 28
CSc1nc(N)c(C)c(C(F)c2ccccc2)n1 (centres undefined) | > 25 | > 25 | > 25 | > 20 | – | –
Cc1c(N)nc(S(C)(=O)=O)nc1C(=O)c1ccccc1 | 10.4 | 0.44 | 19.1 | 16 | 43 | 23
CSc1nc(N)c(C)c(C(=O)c2cccc3ccccc23)n1 | > 19.4 | > 19.4 | > 19.4 | 2.7 | – | –
CSc1nc(N)c(C)c(/C(=N\O)c2ccccc2)n1 | > 25 | 10.5 | > 25 | > 20 | – | –
CSc1nc(N)c(C)c(C(=O)c2cccc(F)c2)n1 | 0.779 | 0.034 | 0.695 | 0.2 | 20 | 23
O=C1Nc2ccc(Cl)cc2[C@@](C#CC2CC2)(C(F)(F)F)O1 [EFAVIRENZ] | 0.008 | – | 0.133 | – | – | –
CSc1nc(N)c(C)c(C(Cl)c2ccccc2)n1 (centres undefined) | > 25 | 12 | > 25 | > 20 | – | –
CNc1nc(N)c(C)c(C(=O)c2ccccc2)n1 | > 25 | 3.4 | > 25 | > 20 | – | –

From ChEMBL document CHEMBL1143432, “Towards novel S-DABOC inhibitors: synthesis, biological investigation, and molecular modeling studies” (2008)
